Measured values as given in ChEMBL document CHEMBL3243983, “2-(Alkoxyaryl)-2-imidazoline monoamine oxidase inhibitors with antidepressant activity” (J Med Chem, 1978).
Calls of active or inactive are those of the source. No cut-off for these calls is given here.

How the values were obtained:
Mus musculus = experiment: Antidepressant activity in mouse assessed as antagonism of tetrabenazine-induced symptoms at 10 mg/kg, ip administered 30 mins before 35 mg/kg, ip tetrabenazine challenge measured after 30 mins by arousal test; assay type: functional
[1] = Inhibition of MAO in mouse brain using serotonin as substrate; assay type: tissue-based
Rattus norvegicus [2] = organism: Rattus norvegicus; experiment: Inhibition of MAO in rat brain using serotonin as substrate preincubated for 15 mins; assay type: tissue-based
Rattus norvegicus [3] = organism: Rattus norvegicus; experiment: Irreversible inhibition of MAO in rat brain using serotonin as substrate measured after dilution; assay type: tissue-based
Rattus norvegicus [4] = organism: Rattus norvegicus; experiment: Irreversible inhibition of MAO in rat brain using serotonin as substrate preincubated for 15 mins measured after dialysis; assay type: tissue-based

Row | Structure (SMILES) | IC50 [1] [nM] | inhibition (INH) (Mus musculus) [%] | inhibition (Rattus norvegicus [2]) [%] | inhibition (Rattus norvegicus [3]) | inhibition (Rattus norvegicus [4]) [%]
1 | CCCCCCOc1ccc2c(C3=NCCN3)cccc2c1 | 3400 | <30 |  |  | 
2 | CCOc1ccc(C2=NCCN2)c2ccccc12 | 54 | 50 |  |  | 
3 | CCCCOc1ccc2c(C3=NCCN3)cccc2c1 | 32 | 60 |  |  | 
4 | c1ccc2c(c1)cc(C1=NCCN1)c1ccccc12 | 35000 | <30 |  |  | 
5 | CCCCOc1ccc(C2=NC(C)CN2)c2ccccc12 (stereo unspecified) | 60 | <60 |  |  | 
6 | CCCCOc1c(CCC)cc(C2=NCCN2)c2ccccc12 | 4900 | <30 |  |  | 

Continued by falling IC50 [1], values first:

Row | IC50 [1] [nM] | Structure (SMILES) | inhibition (INH) (Mus musculus) [%] | inhibition (Rattus norvegicus [2]) [%] | inhibition (Rattus norvegicus [3]) | inhibition (Rattus norvegicus [4]) [%]
7 | 12000 | Oc1ccc(C2=NCCN2)c2ccccc12 | <30 |  |  | 
8 | 6000 | CCCCOc1ccc(C2=NC(C)(C)CN2)c2ccccc12.Cl | <30 |  |  | 
9 | 1200 | C#CCN(C)Cc1ccccc1 [PARGYLINE] | 60 |  |  | 
10 | 400 | CCCCCCCOc1ccc(C2=NCCN2)c2ccccc12 | <30 | 91 | Active | 93
11 | 350 | CCCCCCOc1ccc(C2=NCCN2)c2ccccc12 | 40 |  |  | 
12 | 91 | CCCCCOc1ccc(C2=NCCN2)c2ccccc12 | 50 |  |  | 
13 | 91 | CCCOc1ccc(C2=NCCN2)c2ccccc12 | 60 |  |  | 
14 | 58 | CCCCOc1ccc(C2=NCCN2)c2ccccc12 | 60 | 96 | Active | 77
15 | 50 | CCCCOc1ccc(C2=NCCCN2)c2ccccc12 | 30 |  |  | 
